Data reported in US5851782A, “Inhibitors of ceramidase” (Duke University, priority 1996, dated 1998).

How the values were obtained:
[1] = system: HL-60 cells; assay: Uptake of tritium-labeled compounds by HL-60 cells; type: cell-based, human; conditions: for partitioning of label taken up into lipid organic phase: HL-60, 0-72 h, 5 to 30 μM; for uptake by cells: 24 hr
Experimental: Uptake and metabolism studies. HL-60 cells were grown as described and treated with ^3 H-labeled compounds at concentrations ranging from 0 to 10 μM. At the indicated time points, cell pellets were separated from media and ^3 H radioactivity was counted.
Studies were conducted examining the uptake and metabolism of D- and L-MAPP. In the first set of studies, the effect of duration of exposure of HL-60 cells to D-e-MAPP on the bioactivity of the molecule was determined. D-e-MAPP added to cells could be washed off by repeated sedimentation and washing of cells. Thus, after five cycles of washing, less than 10% of D-MAPP remained associated with the cell pellet-compared to unwashed cells (FIG. 5A).
Next, the uptake of tritium-labeled D- and L-e-MAPP was examined. To this end, D- and L-e-MAPP labeled in the N-myristoyl group were synthesized and used for uptake and metabolism studies. […] At 24 hr, approximately 20% of D-e-MAPP (5 μM) and 26% of L-e-MAPP (5 μM) were taken up by cells.
The partitioning of the label taken up by cells into the lipid organic phase was evaluated next.

[2] = system: alkaline ceramidase; assay: Alkaline ceramidase activity in vitro at pH 9.0; type: biochemical, human; conditions: for use as substrate by alkaline ceramidase: 50 μM tritium-labeled substrate, HL-60 preparation
Experimental: Measurement of ceramidase activity in HL-60 cells. Ceramidase activity in HL-60 cells was measured by a modification of the method of Gatt and Yavin (Methods Enzymol. 14:139 (1969)). Cells were disrupted by sonication in 0.25M sucrose, 1 mM EDTA, and centrifuged at 10,000×g for 10 min after which the supernatant was centrifuged at 100,000×g for 60 min. Ten μl of 1 mM ceramide substrate ([^3 H]C16 -ceramide) was mixed with 100 μl of Triton X-100 (0.1%) in chloroform/methanol, 2:1, and 100 μl of 0.2% sodium cholate in chloroform/methanol, 2:1, after which the solvent was evaporated under N2 at 70° C. To this mixture, 30 μl of water was added and the tubes were heated for 5 s in an 80° C. water bath and then put on ice. Fifty μl of the appropriate buffer depending on desired pH was added followed by 20 μl of 50 mM MgCl2 and 100 μl of cell extract. In experiments using inhibitors, the desired inhibitor was added in ethanol either with the substrate or directly to the final solution. The reaction mixture was incubated for 1 h at 37° C. The ^3 H-fatty acid products of ceramidase were separated by the addition of 2 ml of Dole's solution (isopropyl alcohol, heptane, NaOH), 1.2 ml of heptane, and 1 ml of water. After vortexing and centrifugation, the upper phase was discarded and the lower phase was washed twice with heptane and the upper phase discarded each time. Finally, 1 ml of 1N H2 SO4, and 2 ml of heptane were added, and after vortexing and centrifugation the upper phase was transferred for counting by liquid scintillation.
In order to evaluate the interactions of D- and L-e-MAPP with ceramidase, in vitro studies we conducted using cytosolic and membrane fractions from HL-60 cells. Initially, ceramidase activity was examined for pH dependence using tritium-labeled C16 -ceramide as substrate. […] The alkaline ceramidase activity was very similar to that described in fibroblasts and cerebellar tissue (Sugita et al, Biochim. Biophys. Acta 398:125 (1975), Wertz and Downing, FEBS Lett. 268:110 (1990)). In initial studies, the ability of this ceramidase to utilize D-e- and L-e-MAPP as substrates was investigated. […] These studies corroborate the cellular metabolism studies showing that L-e-MAPP is a substrate for ceramidase in vitro and in cells.
Next, the ability of D- and L-e-MAPP to interfere with hydrolysis of C16 -ceramide by ceramidase at pH 4.5 and 9.0 was evaluated. Inhibition of ceramidase activity by D-e-MAPP was compared to that by N-oleoylethanolamine, a putative inhibitor of acid ceramidase (Sugita et al, Biochim. Biophys. Acta 398:125 (1975)). […] The effects of N-oleoylethanolamine are consistent with the previously reported Ki of 700 μM (Sugita et al, Biochim. Biophys. Acta 398:125 (1975)). […] In contrast, D-e-MAPP was a relatively poor inhibitor of acid ceramidase with less than 10% inhibition of acid ceramidase at 50 μM (FIG. 6C).

[3] = system: ceramidase in HL-60 cells; assay: Inhibition of L-e-MAPP metabolism in cells (ceramidase activity in cells); type: cell-based, human
Experimental: Metabolism studies. Lipids from cells treated with ^3 H-labeled compounds were extracted (Bligh & Dyer method), dried, resuspended in chloroform/methnol (10:1, v/v), and subjected to separation by TLC in chloroform/methanol (4:1, v/v). Spots containing radioactive compounds were scraped and radioactivity was measured using a scintillation counter.
Since D-e-MAPP inhibits ceramidase in cells, then it should also protect L-e-MAPP from metabolic degradation. Therefore, the effects of D-e-MAPP on metabolism of L-e-MAPP were examined. HL-60 cells were treated with tritium-labeled L-e-MAPP (3 μM), and the metabolism of L-e-MAPP was evaluated in the presence and absence of 3 μM D-e-MAPP. […] The effects of D-e-MAPP on metabolism of L-e-MAPP were dose dependent with most of the inhibition occurring at levels of D-e-MAPP of 1-3 μM (FIG. 8B).

[4] = target: T1, acid ceramidase (Homo sapiens, UniProt Q13510); assay: Acid ceramidase activity in vitro at pH 4.5; type: biochemical; parameters: Ceramidase activity was determined from total homogenates of HL-60 cells; endogenous in cells; host or cells: HL-60 cells; conditions: 50 μM
T1 sequence (Q13510 22-395): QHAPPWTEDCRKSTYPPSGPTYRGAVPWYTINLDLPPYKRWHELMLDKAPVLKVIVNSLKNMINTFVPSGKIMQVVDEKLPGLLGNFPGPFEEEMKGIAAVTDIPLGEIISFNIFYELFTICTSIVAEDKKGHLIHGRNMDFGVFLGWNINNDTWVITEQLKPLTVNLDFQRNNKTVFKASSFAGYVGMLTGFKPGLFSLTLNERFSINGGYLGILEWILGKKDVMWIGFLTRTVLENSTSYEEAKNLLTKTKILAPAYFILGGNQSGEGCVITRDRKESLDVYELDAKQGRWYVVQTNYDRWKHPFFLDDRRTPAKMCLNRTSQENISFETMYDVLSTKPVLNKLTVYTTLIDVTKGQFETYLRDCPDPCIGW
Experimental: Measurement of ceramidase activity in HL-60 cells. Ceramidase activity in HL-60 cells was measured by a modification of the method of Gatt and Yavin (Methods Enzymol. 14:139 (1969)). Cells were disrupted by sonication in 0.25M sucrose, 1 mM EDTA, and centrifuged at 10,000×g for 10 min after which the supernatant was centrifuged at 100,000×g for 60 min. Ten μl of 1 mM ceramide substrate ([^3 H]C16 -ceramide) was mixed with 100 μl of Triton X-100 (0.1%) in chloroform/methanol, 2:1, and 100 μl of 0.2% sodium cholate in chloroform/methanol, 2:1, after which the solvent was evaporated under N2 at 70° C. To this mixture, 30 μl of water was added and the tubes were heated for 5 s in an 80° C. water bath and then put on ice. Fifty μl of the appropriate buffer depending on desired pH was added followed by 20 μl of 50 mM MgCl2 and 100 μl of cell extract. In experiments using inhibitors, the desired inhibitor was added in ethanol either with the substrate or directly to the final solution. The reaction mixture was incubated for 1 h at 37° C. The ^3 H-fatty acid products of ceramidase were separated by the addition of 2 ml of Dole's solution (isopropyl alcohol, heptane, NaOH), 1.2 ml of heptane, and 1 ml of water. After vortexing and centrifugation, the upper phase was discarded and the lower phase was washed twice with heptane and the upper phase discarded each time. […]

Row | SMILES | partitioning of label taken up into lipid organic phase [1] | uptake by cells ([1]; HL-60, 5 μM) | use as substrate by alkaline ceramidase [2] | compound remaining associated with the cell pellet after washing ([1]; HL-60, 5 μM, five cycles of washing, compared to unwashed cells) | inhibition of alkaline ceramidase in vitro ([2]; final concentration of 5 μM) | IC50 ([2]; pH 9.0, 50 μM C16-ceramide substrate) | effect on breakdown of L-e-MAPP in cells ([3]; HL-60, 3 μM tritium-labeled L-e-MAPP, 3 μM D-e-MAPP) | levels at which most of the inhibition of L-e-MAPP metabolism occurs ([3]; HL-60, dose dependence) | inhibition at 50 µM [4]
1 | CCCCCCCCCCCCCC(=O)N[C@@H](C)[C@H](O)c1ccccc1 [L-e-MAPP, L-erythro-2-(N-myristolyamino)-1-phenyl-1-propanol] | majority of the label in D-e-MAPP or L-e-MAPP remained associated with the organic phase | ~26% | readily hydrolyzed by ceramidase to a level equivalent to that seen with C16 -ceramide |  |  |  |  |  | 
2 | CCCCCCCCCCCCCC(=O)N[C@H](C)[C@@H](O)c1ccccc1 [D-e-MAPP, D-erythro-2-(N-myristolyamino)-1-phenyl-1-propanol] | majority of the label in D-e-MAPP or L-e-MAPP remained associated with the organic phase | approximately 20% | not substrate for the alkaline ceramidase | less than 10% | approximately 60% | 1000 to 5000 nM | prevented the breakdown of L-e-MAPP | 1 to 3 µM | < 10%
